Patent publication EP0294307B1, “3-Arylcarbamoyl-5-aminomethyl-oxazolidines, and their salts with pharmaceutically acceptable acids” (CORTIAL S.A., priority 1987, dated 1988)

Tests used:
souris = experiment: Toxicity: mortality in mice after oral or intraperitoneal administration; assay type: in vivo
candida albicans = experiment: In vitro antifungal activity by standard dilution techniques; assay type: cell-based; conditions: concentration de 20 microgramme par ml
Text: In vitro une activité antifongique a été mise en évidence vis à vis de candida albicans pour le COR3296. L'activité observée par des techniques de dilution standard est significative à la concentration de 20 microgramme par ml.

[1] = tested on: rat génétiquement hypertendu; experiment: Arterial blood pressure in genetically hypertensive rats after oral administration; assay type: in vivo; conditions: 60mg/kg voie orale
Description: Administré chez le rat génétiquement hypertendu à la dose de 60mg/kg par voie orale le COR3267 entraine une diminution de la pression artérielle de 8, 12 et 14 %, ces variations étant respectivement mesurées 2, 4 et 6 heures après l'administration.

[2] = voie intrapéritonéale, 200mg/kg

Row | Compound | mortalité (souris; [2]) | mortalité (souris; voie orale, 300mg/kg) | activité antifongique (candida albicans) | diminution de la pression artérielle ([1]; 2 heures après l'administration) [%] | diminution de la pression artérielle ([1]; 4 heures après l'administration) [%] | diminution de la pression artérielle ([1]; 6 heures après l'administration) [%]
1 | N=C1OC(CN2CCN(c3ccccc3)CC2)CN1C(=O)Nc1ccccc1 (stereo not drawn) [COR3262, Phényl carbamoyl-3, imino-2, (phényl-4 pipérazinylméthyl)-5 oxazolidine] | aucune mortalité | aucune mortalité | – | – | – | –
2 | N=C1OC(CN2CCN(c3ccccn3)CC2)CN1C(=O)Nc1ccccc1 (stereo not drawn) [COR3263, Phényl carbamoyl-3 imino-2 ((pyridyl-2)-4 pipérazinylméthyl)-5 oxazolidine] | aucune mortalité | aucune mortalité | – | – | – | –
3 | N=C1OC(CN2CCN(c3cccc(C(F)(F)F)c3)CC2)CN1C(=O)Nc1ccccc1 (stereo not drawn) [COR3266, Phényl carbamoyl-3 imino-2 ((trifluorométhyl-3 phényl)-4 pipérazinylméthyl)-5 oxazolidine] | aucune mortalité | aucune mortalité | – | – | – | –
4 | O=C(Nc1ccccc1)N1CC(CN2CCN(c3cccc(C(F)(F)F)c3)CC2)OC1=O (stereo not drawn) [COR3276, Phényl carbamoyl-3 ((trifluorométhyl-3 phényl)-4 pipérazinylméthyl)-5 oxazolidinone-2] | aucune mortalité | aucune mortalité | – | – | – | –
5 | N=C1OC(CN2CCN(c3ccc(F)cc3)CC2)CN1C(=O)Nc1ccccc1 (stereo not drawn) [COR3278, Phényl carbamoyl-3 imino-2 ((fluoro-4 phényl)-4 pipérazinylméthyl)-5 oxazolidine] | aucune mortalité | aucune mortalité | – | – | – | –
6 | N=C1OC(CN2CCN(c3cccc(Cl)c3)CC2)CN1C(=O)Nc1ccccc1 (stereo not drawn) [COR3279, Phényl carbamoyl-3 imino-2 ((chloto-3 phényl)-4 pipérazinylméthyl)-5 oxazolidine] | aucune mortalité | aucune mortalité | – | – | – | –
7 | N=C1OC(CN2CCN(c3ccccc3)CC2)CN1C(=S)Nc1ccccc1 (stereo not drawn) [COR3296, Phényl thiocarbamoyl-3 imino-2 (phényl-4 pipérazinylméthyl)-5 oxazolidine] | aucune mortalité | aucune mortalité | significative | – | – | –
8 | Chlorhydrate de la phényl carbamoyl-3 ((chloro-3 phényl)-4 pipérazinylméthyl)-5 oxazolidinone-2 [COR3277] | aucune mortalité | aucune mortalité | – | – | – | –
9 | Chlorhydrate de la phényl carbamoyl-3 ((fluoro-4 phényl)-4 pipérazinylméthyl)-5 oxazolidinone-2 [COR3265] | aucune mortalité | aucune mortalité | – | – | – | –
10 | Chlorhydrate de la phényl carbamoyl-3, (phényl-4 pipérazinylméthyl)-5 oxazolidinone-2 [COR3267] | aucune mortalité | aucune mortalité | – | 8 | 12 | 14
